Reference: PMC6609541, “Enterohepatic circulation of glucuronide metabolites of drugs in dog” (Pharmacology Research & Perspectives, 2019)
Several values for one entry are separate records, joined by “and”; a condition that tells them apart may be missing. Equal entries are not always repeated.

Legend:
Format in all cases: in vitro ADME
[1] = tested on: UGT (glucuronidation); test: Kidney microsomal glucuronidation assay (human); settings: kidney microsomes, pH 7.5, human, with 2% BSA
Protocol: (§1) Intrinsic clearance of the compounds by glucuronidation was conducted in human and dog liver and kidney microsomes. Microsomes (0.5 mg/mL) with or without 2% bovine serum albumin (BSA), 100 mmol/L Tris‐HCl buffer, (pH 7.5), containing 5 mmol/L MgCl2 and 50 µg of alamethicin were mixed and placed on ice for 15 minutes. Canagliflozin or DPTQ (2 µmol/L final concentration) were added, and the mixture was pre‐incubated at 37°C for 3 minutes. A 0‐minute time point was obtained and the reaction initiated by the addition of UDPGA (5 mmol/L final concentration). Aliquots of the incubation (50 µL) were removed at various time points 5, 15, 30, 60 and 120 minutes, and added to the quench solution (1:1 acetonitrile:water). The zero minute time points were also quenched in the same manner. Substrate concentrations were then measured by LC/MS and the intrinsic clearance values (μL/min/mg protein) were calculated using following equation. CLint=-kdep×incubation volume/mg protein
(§2) In which the depletion rate constant (k dep) is the slope determined using linear regression from the log transformed % remaining on the y‐axis vs time on the x‐axis (min^− ^1). […] To determine the unbound intrinsic clearances the microsomal Clint values were divided by the respective microsomal fraction unbound values. The microsomal unbound fraction both with and without 2% BSA was determined as described previously.15

[2] = tested on: cryopreserved human hepatocytes; test: Hepatocyte intrinsic clearance with and without ABT (human); settings: for % of inhibition by ABT: human hepatocytes, inhibition of Clint by 1 mmol/L ABT (fm by P450); for Hepatic fm by UGT: human, in hepatocytes
Protocol: (§3) The intrinsic clearance was determined in cryopreserved dog and human hepatocytes essentially as described previously.4 The assay incubation contained 0.3 µmol/L compound and hepatocytes at a concentration of 10^6 cells/mL, with and without 30 minutes pre‐incubation of 1 mmol/L ABT. Intrinsic clearance measurement was initiated by the addition of compound and the incubation quenched at 0.6, 15, 30, 60 and 90 minutes for DPTQ, and at 0.6, 15, 30, 60, 120 and 240 minutes by addition of acetonitrile with 0.1% formic acid. Samples were centrifuged at 3500 g for 10 minutes and the supernatant was analyzed to quantify parent compound loss and the intrinsic clearance values (μL/min/10^6 cells) were calculated using following equation for incubations with and without ABT. CLint=-kdep×incubation volume/10^6cells
(§4) In which the depletion rate constant (k dep) is the slope determined using linear regression from the log transformed percentage remaining on the y‐axis vs time on the x‐axis (min^− ^1). The fraction of metabolism (fm) by P450 was determined by the measurement of the percentage of inhibition of Clint by ABT.

[3] = as above; settings: cryopreserved human hepatocytes, human hepatocytes, 0.3 µmol/L compound
Protocol: as §3, §4

[4] = tested on: cryopreserved dog hepatocytes; test: Hepatocyte metabolite profile with and without ABT (dog); settings: 4 h, 2 μmol/L
Protocol: Cryopreserved dog and human hepatocytes were obtained from BioreclamationIVT (Baltimore, MD). […] A stock solution of canagliflozin and DTPQ was added to medium to give a final incubation concentration of 2 μmol/L. The incubations including the media and cells were quenched after 4 hours with an equal volume of acetonitrile containing 200 ng/mL niflumic acid as internal standard. Samples were centrifuged at 3500 g for 10 minutes and the supernatant was analyzed by liquid chromatography coupled to a diode array UV detection and mass spectrometry system consisting of the Acquity ultra‐performance liquid chromatography column, Synapt G2‐S mass spectrometer, and an ultra‐performance liquid chromatography photodiode array detector (Waters, Milford, MA). The chromatographic separation of metabolites was achieved on a Waters 1.7‐μm Acquity BEH C18 (100 × 2.1 mm) column maintained at 60°C. The mobile phase consisted of solvent A (0.2% formic acid in water for DPTQ and 10 mmol/L ammonium acetate in water for canagliflozin) and solvent B (100% acetonitrile). The samples were eluted, at a flow rate of 0.5 mL/min with a gradient for 5 minutes. The LC/MS full scan data were processed by Metabolynx (Waters, Milford, MA) to identify metabolites. Product ion spectra were acquired to confirm the metabolites. The mass spectrometer was operated in positive ion mode with an electrospray ionization source. The parameters for the chamber were: capillary 1.0 kV, sample cone 50 V, source temperature 120°C, desolvation 500°C, and collision energy 25 V. The peak areas for parent, metabolite and internal standard were integrated to allow for comparison between conditions.

[5] = tested on: UGT; test: Liver microsomal glucuronidation assay (human); settings: human liver microsomes, pH 7.5, with 2% BSA
Protocol: as §1, §2

[6] = tested on: UGT (glucuronidation); test: Liver microsomal glucuronidation assay (human); settings: liver microsomes, pH 7.5, with 2% BSA, Clint divided by microsomal unbound fraction, read-out: Clint,u, Liver microsomes
Protocol: as §1, §2

[7] = Hepatocyte intrinsic clearance with and without ABT (dog); settings: cryopreserved dog hepatocytes, dog hepatocytes, 0.3 µmol/L compound
Protocol: as §3, §4

[8] = tested on: cryopreserved dog hepatocytes; test: as above; settings: for percentage of the metabolism not inhibited by ABT / % of inhibition by ABT: dog hepatocytes; for % of inhibition by ABT: inhibition of Clint by 1 mmol/L ABT (fm by P450); for Hepatic fm by UGT: dog, in hepatocytes
Protocol: as §3, §4

[9] = biological target: T1, P-gp (Homo sapiens, UniProt P08183); test: Bi‐directional transport across MDCKII cells expressing human P‐gp; settings: human, MDCK-MDR1, with 2.5 μmol/L LSN335984, uninhibited ratio divided by inhibited ratio; NER >3.0 = P‐gp substrate; read-out: Net efflux ratio
T1 construct: host or cells: MDCKII
T1 sequence (P08183 whole entry): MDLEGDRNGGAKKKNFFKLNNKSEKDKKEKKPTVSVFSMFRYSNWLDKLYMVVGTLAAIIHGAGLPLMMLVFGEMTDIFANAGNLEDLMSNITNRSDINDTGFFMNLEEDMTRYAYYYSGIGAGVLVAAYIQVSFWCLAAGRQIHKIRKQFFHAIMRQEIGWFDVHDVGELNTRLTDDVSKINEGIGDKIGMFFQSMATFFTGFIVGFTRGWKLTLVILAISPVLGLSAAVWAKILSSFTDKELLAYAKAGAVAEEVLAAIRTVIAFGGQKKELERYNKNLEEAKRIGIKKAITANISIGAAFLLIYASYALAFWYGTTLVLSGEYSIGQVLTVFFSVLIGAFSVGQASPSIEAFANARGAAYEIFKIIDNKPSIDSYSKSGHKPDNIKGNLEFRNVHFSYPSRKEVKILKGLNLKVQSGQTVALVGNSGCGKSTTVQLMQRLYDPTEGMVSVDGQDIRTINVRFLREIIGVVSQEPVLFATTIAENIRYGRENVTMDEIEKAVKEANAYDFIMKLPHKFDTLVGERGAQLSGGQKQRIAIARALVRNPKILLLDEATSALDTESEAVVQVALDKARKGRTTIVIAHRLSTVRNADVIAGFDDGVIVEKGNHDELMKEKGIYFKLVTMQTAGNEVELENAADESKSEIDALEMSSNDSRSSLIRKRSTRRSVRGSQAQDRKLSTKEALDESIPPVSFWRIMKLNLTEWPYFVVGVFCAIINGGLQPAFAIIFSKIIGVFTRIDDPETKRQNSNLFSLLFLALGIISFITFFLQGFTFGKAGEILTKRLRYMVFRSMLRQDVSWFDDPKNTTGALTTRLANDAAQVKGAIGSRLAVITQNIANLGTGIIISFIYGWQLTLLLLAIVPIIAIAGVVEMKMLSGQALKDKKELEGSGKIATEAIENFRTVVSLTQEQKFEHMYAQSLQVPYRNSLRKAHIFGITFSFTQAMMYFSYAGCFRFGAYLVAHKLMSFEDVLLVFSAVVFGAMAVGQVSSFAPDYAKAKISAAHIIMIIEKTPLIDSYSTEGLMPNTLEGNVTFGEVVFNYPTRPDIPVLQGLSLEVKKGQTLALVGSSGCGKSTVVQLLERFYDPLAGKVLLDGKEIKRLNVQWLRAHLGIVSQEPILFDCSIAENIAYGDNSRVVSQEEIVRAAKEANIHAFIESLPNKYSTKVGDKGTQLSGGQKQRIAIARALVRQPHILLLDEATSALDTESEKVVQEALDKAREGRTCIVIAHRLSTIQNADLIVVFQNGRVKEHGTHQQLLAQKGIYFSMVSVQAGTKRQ
Protocol: MDCKII cells stably expressing human wild‐type P‐gp were obtained from the Netherlands Cancer Institute Amsterdam, The Netherlands). MDCK cells were maintained and the assay was conducted essentially as described previously.12, 13 Transport was measured in both directions across uninhibited and inhibited cell monolayers using a substrate concentration of 5 μmol/L diluted from a 10 mmol/L DMSO stock solution final DMSO concentration of 0.05%) and a single 60‐min time interval.

[10] = tested on: UGT; test: Liver microsomal glucuronidation assay (dog); settings: dog liver microsomes, pH 7.5, dog, with 2% BSA
Protocol: as §1, §2

[11] = tested on: UGT (glucuronidation); test: Liver microsomal glucuronidation assay (dog); settings: liver microsomes, pH 7.5, dog, without BSA
Protocol: as §1, §2

[12] = with 1 mmol/L ABT, 30 minutes pre-incubation, 1 mmol/L ABT pre‐incubation 30 minutes, read-out: Clint with ABT
[13] = 10^6 cells/mL, read-out: Clint without ABT
[14] = Clint divided by microsomal unbound fraction, read-out: Clint,u, Liver microsomes

SMILES	% of inhibition by ABT [2]	Hepatic fm by UGT [2]	hepatocyte CLint at 0.3 µmol/L [3, 12]	hepatocyte CLint at 0.3 µmol/L [3, 13]	Peak area (+ABT) [4]	Peak area (‐ABT) [4]	microsomal CLint at 2 µmol/L [5]	microsomal CLint at 2 µmol/L [6]	hepatocyte CLint at 0.3 µmol/L [7, 12]	hepatocyte CLint at 0.3 µmol/L [7, 13]	percentage of the metabolism not inhibited by ABT [8]	% of inhibition by ABT [8]	Hepatic fm by UGT [8]	other results
Cc1ccc([C@@H]2O[C@H](CO)[C@@H](O)[C@H](O)[C@H]2O)cc1Cc1ccc(-c2ccc(F)cc2)s1 [Canagliflozin]	20.1 ± 5.1%	High (high 70%‐100% in hepatocytes)	10.1 ± 1.4 µL/min/1e6 cells	12.7 ± 2 µL/min/1e6 cells	8448	7808	7.6 µL/min/mg	422 µL/min/mg	6 ± 3.3 µL/min/1e6 cells	6.5 ± 3.6 µL/min/1e6 cells	87.3%	12.7 ± 14.1%	Low (Low 0%‐30%)	microsomal CLint at 2 µmol/L ([1]; Clint divided by microsomal unbound fraction, read-out: Clint,u, Kidney microsomes): 222 µL/min/mg; microsomal CLint at 2 µmol/L ([1]; ND = Clint < 1.8, read-out: Clint, Kidney microsomes): 4 µL/min/mg; % of inhibition by ABT ([8]; listed as canagliflozin): 12.7%
C[C@H]1c2cccc(CC(C)(C)O)c2C[C@H](CO)N1C(=O)Cc1c(Cl)cccc1Cl [DPTQ, 2‐(2,6‐dichlorophenyl)‐1‐((1S,3R)‐5‐(2‐hydroxy‐2‐methylpropyl)‐3‐(hydroxymethyl)‐1‐methyl‐3,4‐dihydroisoquinolin‐2(1H)‐yl)ethan‐1‐one]	7.8 ± 9.6%	High (high 70%‐100% in hepatocytes)	5.5 ± 2.2 µL/min/1e6 cells	5.8 ± 2 µL/min/1e6 cells	244	33	5.6 µL/min/mg	47.1 µL/min/mg	18.3 ± 5.9 µL/min/1e6 cells	38.6 ± 8.5 µL/min/1e6 cells	53.5%	46.5% and 46.5 ± 6.6%	Moderate (moderate 30%‐70%)	efflux ratio at 60 min, 5 μmol/L [9]: 1.3; microsomal CLint at 2 µmol/L [10, 14]: 667 µL/min/mg; microsomal CLint at 2 µmol/L ([10]; ND = Clint < 1.8, read-out: Clint, Liver microsomes): 79.4 µL/min/mg; microsomal CLint at 2 µmol/L ([11]; 2 µmol/L, 0.5 mg/mL, UDPGA, ND = Clint < 1.8, read-out: Clint, Liver microsomes): 99 µL/min/mg; microsomal CLint at 2 µmol/L [11, 14]: 123 µL/min/mg
